Measured values reported in patent US20150212087A1, “Detection of the ERalpha/Src/PI3K Complex as Predictive Marker in Breast Cancer” (Centre Leon Berard, priority 2012, published 2015).

Tests used:
ERα/Src interaction = experiment: In situ Proximity Ligation Assay (PLA) detection of ERα/Src interaction in MCF-7 cells; format: cell-based, human; conditions: upon treatment
Description: (§1) Castoria et al. reported that estrogen rapidly triggers the interaction of ERα with Src and PI3K in MCF-7 cells, forming a complex involved in estrogen nongenomic-induced cell proliferation. […] Therefore the physiological relevance of this signaling pathway remains questionable. To date, immuno fluorescence analysis of the complex has been impeded by the fact that only a small population of ERα interacts with Src and PI3K. To circumvent this problem, we used a newly developed technique, the Proximity Ligation Assay. […] We investigated the ERα/PI3K interaction in the human breast tumor cell line MCF-7, using a rabbit anti-ERα together with a mouse anti-p85 antibody. The ERα/Src interaction was detected using the same anti-ERα together with a mouse anti-Src antibody. […] No dots were detected using only one antibody as confirmed by counting dots per 100 cells (FIG. 1, around 50 dots/cell versus less than 5). Importantly, the number of red dots increased after 5 min of estrogenic treatment then decreased after 15 min. This confirmed that upon estrogenic treatment, the formation of this complex is rapid and transitory (FIG. 2:)). […] They were detected exclusively in the […] of MCF-7 cells, as expected. […]

ERα/PI3K interaction = experiment: In situ Proximity Ligation Assay (PLA) detection of ERα/PI3K interaction in MCF-7 cells; format: cell-based, human; conditions: upon treatment
Description: as §1

Compound | ERα/Src interaction (red dots) by PLA (ERα/Src interaction) | ERα/PI3K interaction (red dots) by PLA (ERα/PI3K interaction)
CC/C(=C(\c1ccccc1)c1ccc(OCCN(C)C)cc1)c1ccccc1 [tamoxifen] | decrease | decrease
Cc1ccc(-c2nn(C(C)(C)C)c3ncnc(N)c23)cc1 [PP1] | significant decrease of red dots | significant decrease of red dots
